Patent US20100016211A1, “Treatment of Melanoma With Alpha Thymosin Peptides” (SciClone Pharmaceuticals, Inc., priority 2007, published 2010)
Ends that are not written are not given here.

What was measured:
[1] = system: stage IV metastatic melanoma; test: Phase 2 multi-center open-label study: tumor response (CR, PR, RR); format: in vivo, human; conditions: regimen with TA1 but without IFN alpha vs both IFN alpha and TA1
Excerpt: (§1) This phase 2 multi-center, open-label study enrolled 488 patients with stage IV metastatic melanoma at 64 European clinical sites. The trial was designed to evaluate different dose levels of Thymosin alpha 1 (TA1). This study was in combination with DTIC chemotherapy, with and without low-dose interferon alpha, as a first-line treatment for malignant melanoma. Most patients enrolled in the trial had liver and other metastases and the remaining patients had lung metastases and skin or lymph node metastases.
(§2) A total of 488 patients (pts) (63% M1; 24% M1b; 13% M1a) were randomised into the study from 64 European sites. Demographic and baseline characteristics are shown in table 1 wherein DIT=DTIC/IFN alpha,/TA1, DT=DTIC/TA1, T=TA1, DI=DTIC/IFN alpha and ECOG PS is a patient's health performance status (PS) according to the Eastern Cooperative Oncology Group (ECOG).

[2] = system: stage IV metastatic melanoma; test: Phase 2 multi-center open-label study: overall survival (OS); format: in vivo, human; conditions: regimen with TA1 but without IFN alpha vs both IFN alpha and TA1
Excerpt: as §1, §2

[3] = system: stage IV metastatic melanoma; test: Phase 2 multi-center open-label study: progression free survival (PFS); format: in vivo, human; conditions: regimen with TA1 but without IFN alpha vs both IFN alpha and TA1
Excerpt: as §1, §2

[4] = Phase 2 multi-center open-label study: adverse events and tolerability; set-up: species or system human; conditions: in vivo
Excerpt: as §1, §2

Melan-A/MART-1 = test: Melanoma antigen expression in B-16 cells by confocal microscopy; format: cell-based, mouse
Excerpt: (§3) Thymosin alpha 1 was able to up-regulate melanoma-specific antigens melan-A and MART-1 on the cell surface of mouse B-16 melanoma cells.

Gp100 = test: as above; format: cell-based; conditions: B-16 mouse melanoma cells, 24 h treatment, 50 μg/ml; control: +
Excerpt: as §3

thymosin alpha 1 (Ac-SDAAVDTSSEITTKDLKEKKEVVEEAEN; UniProt P06454 2-29, looked up)
Overall tumor response (in words) [1]: higher overall tumor response
Median survival rate (in words) [2]: higher median survival rate
Progression-free survival (in words) [3]: higher progression-free survival
Serious adverse events attributed to the drug (in words) [4]: no serious adverse events attributed to the drug
Melan-A/MART-1 expression (Melan-A/MART-1; B-16 mouse melanoma cells, 24 h treatment, 50 μg/ml, control: +): ++ ↑
Melanoma-specific antigens melan-A and MART-1 on the cell surface (in words) (Melan-A/MART-1; mouse B-16 melanoma cells): up-regulate
Gp100 expression (Gp100): ± ↓
